In ChEMBL document CHEMBL1144644, “Synthesis and biological evaluation of 12 allenic aromatic ethers” (Bioorg Med Chem Lett, 2007):

How the values were obtained:
KB = experiment: Antitumor activity against KB cells by MTT assay; type: functional, cell-based; conditions: Homo sapiens
[1] = Antitumor activity against KBv200 cells by MTT assay; type: functional, cell-based; conditions: Homo sapiens

IC50 (KB) [µM]	Structure (SMILES)	IC50 [1] [µM]
> 200	C=C=CCBr	> 200
53.1	C=C=CCOC(=O)[C@]1(O)CC(OC(=O)/C=C/c2ccc(OCC=C=C)c(O)c2)[C@@H](O)[C@@H](O)C1 (stereo partly drawn)	35.7
> 200	C=C=CCO	> 200
75.4	C=C=CCOc1ccc(COc2ccc(C(=O)OC)cc2)cc1	52.9
22.5	C=C=CCOc1ccc(C(=O)OC)cc1	20.9
40.6	C=C=CCOc1ccc(C(=O)O)cc1	49.6
29.4	C=C=CCOc1ccc(/C=C/C(=O)OC)cc1O	23.4
34.6	C=C=CCOc1ccc(COc2ccc(/C=C/C(=O)OC)cc2OC)cc1	30.3
48.8	C=C=CCOc1ccc(COc2ccc(/C=C/C(=O)OC)cc2)cc1	55.5
17.4	C=C=CCOc1ccc(/C=C/C(=O)OC)cc1OC	18.3
48.1	C=C=CCOc1ccc(/C=C/C(=O)NC2(C(=O)OC)CC2)cc1	77
> 200	COC(=O)/C=C/c1ccc(O)c(O)c1 [METHYLCAFFEATE]	> 200
> 200	COC(=O)c1ccc(O)cc1 [METHYLPARABEN]	> 200
> 200	O=C(O)c1ccc(O)cc1 [PARABEN]	> 200

Further lines, the molecule ahead of its results:

Structure (SMILES)	IC50 (KB) [µM]	IC50 [1] [µM]
O=C(/C=C/c1ccc(O)c(O)c1)OC1C[C@@](O)(C(=O)O)C[C@H](O)[C@@H]1O (stereo partly drawn)	> 200	> 200
C=C=CCOc1ccc(/C=C/C(=O)OC)cc1	27.6	19
C=C=CCOc1ccc(/C=C/C(=O)O)cc1	71.5	52.4
COC(=O)/C=C/c1ccc(O)c(OC)c1	> 200	> 200
COC(=O)C1(N)CC1	135	> 200
COC(=O)C1(NC(=O)/C=C/c2ccc(O)cc2)CC1	> 200	> 200
O=C(O)/C=C/c1ccc(O)cc1 [COUMARIC ACID]	> 200	> 200
COC(=O)/C=C/c1ccc(O)cc1 [METHYL P-HYDROXYCINNAMATE]	123	101
OCc1ccc(O)cc1 [PARAHYDROXYBENZYL ALCOHOL]	> 200	> 200
C=C=CCOc1ccc(CO)cc1 [TERRICOLLENE C]	74.5	76.6
